According to PubChem BioAssay (NCI):
Values joined by “and” are separate entries in the source; they are usually repeats but may differ in a detail not shown here. Equal entries are not always repeated.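 Test compounds were applied to cells in 96-well plates for 48 hours at 5 doses. GI50 is the concentration that inhibits growth by half. Definition used: TGI = concentration required for complete inhibition of growth.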

Legend:
Test in all cases: inhibition of tumour cell growth, NCI panel, 48 h
NCI-H460 lung = tested on: NCI-H460 lung
COLO 205 colon = tested on: COLO 205 colon
SNB-75 CNS = tested on: SNB-75 CNS
HOP-92 NSCLC = tested on: HOP-92 NSCLC
HT29 colon = tested on: HT29 colon
MALME-3M melanoma = tested on: MALME-3M melanoma
A549 NSCLC = tested on: A549 NSCLC
OVCAR-8 ovarian = tested on: OVCAR-8 ovarian
SF-295 CNS = tested on: SF-295 CNS
DU-145 prostate = tested on: DU-145 prostate

| SMILES | GI50 (NCI-H460 lung) [µM] | TGI (NCI-H460 lung) [µM] | GI50 (COLO 205 colon) [µM] | TGI (COLO 205 colon) [µM] | GI50 (SNB-75 CNS) [µM] | TGI (SNB-75 CNS) [µM] | GI50 (HOP-92 NSCLC) [µM] | TGI (HOP-92 NSCLC) [µM] | GI50 (HT29 colon) | TGI (HT29 colon) [µM] | GI50 (MALME-3M melanoma) [µM] | TGI (MALME-3M melanoma) [µM] | GI50 (A549 NSCLC) [µM] | TGI (A549 NSCLC) [µM] | GI50 (OVCAR-8 ovarian) | TGI (OVCAR-8 ovarian) [µM] | GI50 (SF-295 CNS) [µM] | TGI (SF-295 CNS) [µM] | GI50 (DU-145 prostate) [µM] | TGI (DU-145 prostate) [µM] |
| --- | --- | --- | --- | --- | --- | --- | --- | --- | --- | --- | --- | --- | --- | --- | --- | --- | --- | --- | --- | --- |
| O=P(O)(O)OCC1OC(n2cnc3c(NCc4ccccc4)ncnc32)C(O)C1O (stereo not given) | 10.6 | > 59.3 | 2.37 | 8.53 | 0.987 | > 44.1 | 2.14 | > 22.5 | 2.27 µM | > 36 | 6.64 | > 100 | 7.21 | > 88.4 | 0.587 µM | 6.92 | 3.09 | 21.8 | – | – |
| Nc1c2ccccc2nc2c(C(=O)Nc3ccc(S(N)(=O)=O)cc3)cccc12 | – | > 100 | – | > 100 | – | > 100 | – | – | – | > 100 | – | > 100 | – | > 100 | – | > 100 | – | > 100 | – | – |
| COC(=O)C1CCc2nnc(-c3ccccc3)n21 (stereo not given) | – | > 100 | – | > 100 | – | > 100 | – | > 100 | – | > 100 | – | > 100 | – | > 100 | – | > 100 | – | > 100 | – | – |
| c1ccc(OC2=NC3=S(S2)SC(Oc2ccccc2)=N3)cc1 | – | > 100 | – | 37.2 | – | 59.5 | – | – | – | 40.2 | – | 41.7 | – | 47.6 | – | 57.6 | – | 39 | – | – |
| CCC[CH2][Sn]1([CH2]CCC)[S]CC[N]1S(=O)(=O)c1ccc(C)cc1 | 2.5 | 5.44 | 1.63 | 3.09 | 1.13 | 2.38 | 1.19 | 2.46 | 2.04 µM | 3.73 | 1.09 | 2.33 | 3.15 | 9.32 | 1.63 µM | 4.16 | 1.97 | 3.42 | – | – |
| CCOC(=O)C1=C(C)NC(c2ccco2)=C(C#N)C1c1cccc([N+](=O)[O-])c1 (stereo not given) | 0.0633 | 0.432 | 0.0149 | 0.039 | – | – | – | – | 0.01 µM | 0.562 | – | 23.6 | 0.0293 | – | 0.0149 µM | 13.9 | – | – | 0.0316 | 4.02 |
| CO[C@@]1(c2ccccc2)O[C@H]2OCCC2[C@H]1c1ccc(Cl)cc1 (stereo not given in full) | – | 57.8 | – | 42.2 | – | > 100 | – | – | – | 50.6 | – | 84.8 | – | > 100 | – | > 100 | – | 59.7 | – | – |
| CC(=O)[O-].N.N.N.N.[Co+3].[O-][Cl+3]([O-])([O-])[O-].[OH3+] | > 100 | > 100 | > 100 | > 100 | 55.1 | > 100 | > 100 | > 100 | > 100 µM | > 100 | > 100 | > 100 | > 100 | > 100 | > 100 µM | > 100 | > 100 | > 100 | – | – |
| C[CH2][Sn]([CH2]C)([O]C(=O)c1ccc(F)cc1)[O]C(=O)c1ccc(F)cc1 | > 100 | > 100 | 20.3 | 39.6 | 17.9 | 33.5 | 12.7 | 26 | 63.8 µM | > 100 | 16.6 | 34.2 | > 100 | > 100 | > 52.9 µM | > 79.2 | 44.3 | > 65.7 | – | – |
| C=C1C(OC(C)=O)CC(OC(C)=O)C2(C)C(OC(C)=O)C(OC(C)=O)C3=C(C)C(OC(=O)/C=C/c4ccccc4)CC(C(OC(C)=O)C12)C3(C)C (stereo not given) | – | > 100 | – | > 100 | – | 43.4 | – | 65.7 | – | > 100 | – | > 100 | – | > 100 | – | > 100 | – | > 100 | – | – |
| COCCNc1cncc(C(N)=O)c1 | – | > 100 | – | > 100 | – | > 100 | – | – | – | > 100 | – | – | – | > 100 | – | > 100 | – | > 100 | – | > 100 |
| C[C@H]1C=C2C(=O)O[C@H]3CC[C@@H](C1)[C@@]23O | – | 19.4 | – | 12.5 | – | 19.5 | – | 16.3 | – | 16.9 | – | 20 | – | 34.3 | – | 13.8 | – | 16.4 | – | – |
| COc1ccc2c(c1)CCc1c-2n[nH]c1-c1[nH]nc2c1CCc1cc(OC)ccc1-2 | – | > 100 | – | > 100 | – | 61.3 | – | 78.1 | – | > 100 | – | > 100 | – | > 100 | – | > 100 | – | 39.5 | – | – |
| CC1=CCCC2C(C=O)(C1)CC(C)C2(CO)CC/C(=C/CO)CO (stereo not given) | – | > 100 | – | > 100 | – | > 100 | – | 87.6 | – | > 100 | – | > 100 | – | > 100 | – | > 100 | – | > 100 | – | – |
| O/N=C/c1ccc(O)c(O)c1 | – | > 100 | – | > 100 | – | > 100 | – | > 100 | – | > 100 | – | > 100 | – | > 100 | – | > 100 | – | > 100 | – | – |
| CC(=O)[CH-]C(=O)c1ccccc1.CC(=O)[CH-]C(=O)c1ccccc1.[O-]c1ccc2c(c1)OCO2.[O-]c1ccc2c(c1)OCO2.[Ti+4] | 21.1 | 72.6 | 32 | > 100 | 19.2 | 66.1 | 21.1 | > 100 | 26.8 µM | > 100 | 23.1 | 50.2 | 41.7 | > 100 | 34.4 µM | > 100 | 30.6 | > 100 | – | – |
| O=C1N=C(Nc2nc(-c3csc(NC4=NC(=O)/C(=C\c5ccccc5)S4)n3)cs2)S/C1=C/c1ccccc1 | 12.8 | > 50 | 30.3 | > 50 | – | – | 4.37 | 20.5 | 25.7 µM | > 50 | – | – | 16.3 | > 50 | 15.6 µM | > 50 | 16.6 | > 50 | 16.8 | > 50 |
| COc1ccc([C@@H]2OC(=O)C3C2C(=O)O[C@H]3c2ccc(OC)c(OC)c2)cc1OC (stereo not given in full) | – | > 100 | – | > 100 | – | > 100 | – | > 100 | – | > 100 | – | > 100 | – | > 100 | – | > 100 | – | > 100 | – | – |
| COc1ccc2c(c1)CN1CCc3c(cc(OC)c(OC)c3OC)C1C2 (stereo not given) | – | – | – | > 100 | – | > 100 | – | > 100 | – | > 100 | – | > 100 | – | > 100 | – | > 100 | – | > 100 | – | – |
| CO/N=C(\COc1ccc2oc(-c3ccccc3)cc(=O)c2c1)c1ccc(F)cc1 | – | – | 59.5 | > 100 | 17.4 | 40.6 | – | – | 31.4 µM | > 100 | 30.3 | 67.1 | 20 | 48.7 | 21 µM | 47.6 | > 100 | > 100 | 25 | 76.5 |
| C1=CCCC=CCC1.C[PH+](C)C.C[PH+](C)C.C[PH+](C)C.[Cl-].[Ir] | 77.9 | > 100 | – | – | 34.3 | > 100 | 28.6 | 98.8 | 47.6 µM | > 100 | 22.9 | 61.5 | 80.1 | > 100 | 35.2 µM | > 100 | > 100 | > 100 | – | – |
| O=C1NC2C(O)CCCCC2C12CCCCC2 (stereo not given) | – | > 100 | – | > 100 | – | > 100 | – | > 100 | – | > 100 | – | > 100 | – | > 100 | – | > 100 | – | > 100 | – | – |
| COC(=O)CC[C@]12C[C@]13CC[C@]1(C)C4C(C)C[C@]5(CC(C)C(=O)O5)OC4CC1(C)C3CCC2C(C)(C)O (stereo not given in full) | – | > 100 | – | > 100 | – | > 100 | – | 65.1 | – | > 100 | – | > 100 | – | > 100 | – | > 100 | – | > 100 | – | – |
| COc1cc2cnc3c4cc(OCc5ccccc5)ccc4ccc3c2cc1OC | – | > 100 | – | 74.9 | – | 18.7 | – | > 100 | – | > 100 | – | > 100 | – | > 100 | – | > 100 | – | 82.9 | – | – |
| COC(=O)[C@H](Cc1cn(C)cn1)NC(=O)[C@H](Cc1ccccc1)NC(=O)Nc1cc(C(F)(F)F)cc(C(F)(F)F)c1 | 14.2 | 29.7 | 15.3 | 31.6 | 15.6 | 30 | – | – | 4.97 µM and 14.9 µM | 29.8 | 18.2 | 34.2 | 16.1 | 31.6 | 8.26 µM and 9.71 µM | 22.7 | 16.4 | 31.5 | 13.8 | 27 |
| C=C1C[C@@H]2C[C@@H](C)CC(O)[C@]2(CCCN)C1O (stereo not given in full) | – | > 100 | – | > 100 | – | > 100 | – | > 100 | – | > 100 | – | > 100 | – | > 100 | – | > 100 | – | > 100 | – | – |
| CC1c2[nH]c3ccccc3c2CCN1O (stereo not given) | – | – | – | > 100 | – | > 100 | – | > 100 | – | > 100 | – | > 100 | – | > 100 | – | > 100 | – | > 100 | – | – |
